This note sets out measurements from patent publication US7378443B2, “Fatty acid analogues for the treatment of cancer” (Thia Medica, AS, priority 2000, dated 2008).

The subject of data set [1] is GaMg cells. The data set is described as follows: cell migration out from attached spheroids. The class given is cell-based, human. As to conditions: 100 μM, 3 days of culture, DMEM, data not shown. As for the experimental part: (§1) To compare the effect of the different fatty acid analogues on tumour spheroid growth, both D-54Mg and GaMg spheroids were transferred individually into 16 mm 24-well dishes base coated with 0.5 ml 0.75% DMEM-agar. D-54Mg and GaMg are human cell lines. The D-54Mg cell line was derived from a mixed anaplastic glioma and was kindly supplied by Dr. Darell D. Bigner, Duke University, Durham, N.C. The GaMg cell line was established in our laboratory and has been described in detail elsewhere (Bjerkvik et al.: Anticancer research 1998: vol 8, p 797-803). The spheroids were divided into 5 groups with 4 spheroids in each group. Four groups were treated with the different fatty acid analogues at a final fatty acid concentration of either 100 or 250 μM. […] The volume of the overlay suspension was 1.0 ml. The size of the spheroids were determined every second day be measuring two orthogonal diameters using an inverted phase contrast microscope with a calibrated reticle in the eye-piece. This was done during a 14-day period.
(§2) The effect of the fatty acid analogues on cell migration was studied by measuring the ability of cells to migrate out from spheroids that had attached to a plastic surface. […] The size of the outgrowth area was then determined by using a Kontron morphometry system (Kontron, Eching, Germany). […]

The test system of data set [2] is D-54MG cells. The data set is described as follows: cell migration out from attached spheroids. The class given is cell-based, human. As to conditions: D-54MG spheroids, 100 μM, 3 days of culture, DMEM; data not shown. As for the experimental part:
as §1, §2

For data set [3], the system named is BT4Cn tumours. Put plainly: survival of rats with intracranially implanted BT4Cn tumours. Type of data set: in vivo. As for the experimental part:
Mail Norwegian brown rats, BD IX, were used as described in example 5. The TTA was administered by oro-gastric intubation.
The tumour was implanted by stereotactical transplantation. The rats were anaesthetised with 0.4 ml Equithesin/100 g body weight. A skin incision was made, blood was removed by H2O2 and the scull was trephined using a dental drill.
The burr hole was localized 3.3 mm posterior to the coronal suture and 2.5 mm lateral to the sagittal suture.
Cells were harvested and counted as described above (Section 5.3), and then diluted in DPBS to a final concentration on 20.000 cells/μl. 2 μl cell suspension was injected with a Hamilton syringe with a cone-tipped 0.7 mm needle at a depth of 2.8 mm. The skin was closed with steel staples, and the animals were returned to their cages.

The nature of data set [4]: 28 days toxicity study in dogs (GLP). Type of data set: in vivo. The text has this: A 28 days toxicity study in dogs according to GLP guidelines has been performed by Corning Hazleton (Europe), England. […] Some lipid related parameters were lowered in the animals given high dosages. This is consistent with the pharmacological activity of TTA.
Data set [5] concerns Salmonella typhimurium. Put plainly: tests for mutagenic activity in bacterial strains. Type of data set: cell-based. As to conditions: 3-1000 mg/plate (TTA), 2-5000 mg/plate (TSA). The protocol:
(§3) Covance Laboratories Limited, England, has performed tests for mutagenic activity. […] Furthermore, TTA was not mutagenic when tested in mouse lymphoma cells […] L5178Y.
(§4) The concentration of the compounds tested in S. typhimurium and E. coli were 3-1000 mg/plate (TTA) 2-5000 mg/plate (TSA). In mouse lymphoma cells, L5178Y, the concentration was 2,5-50 mg/ml.

Data set [6] deals with Escherichia coli. The data set is described as follows: tests for mutagenic activity in bacterial strains. The note with it: 3-1000 mg/plate (TTA), 2-5000 mg/plate (TSA). The class given is cell-based. The protocol:
as §3, §4

The test system of data set [7] is mouse lymphoma cells, L5178Y. The data set is described as follows: mutagenicity test in mouse lymphoma cells. Type of data set: cell-based. As to conditions: 2,5-50 mg/ml. As for the experimental part: as §3, §4
For data set [8], the system named is Chinese hamster ovary cells. Put plainly: chromosomal aberrations in cultured Chinese hamster ovary cells. Type of data set: cell-based. As to conditions: doses tested 12-140 mg/ml.

Entries after “also recorded” stand apart in the source; their conditions may differ.

As to Tetradecylthioacetic acid [TTA], the migratory capacity entry in data set [1] and in data set [2] was “severely inhibited” each time. The overall survival result in data set [3] is listed as “substantially increased”. The lipid related parameters result in data set [4] (animals given high dosages) is reported as “lowered”. For the same compound, the tolerability entry in data set [4] (oral administration, dose levels up to 500 mg/kg/day) is “generally well tolerated”. In data set [4] (oral, dose levels of 50 or 500 mg/day/kg), the evidence of toxicity result is recorded as “no evidence of toxicity”. Besides, the induction of mutations entry in data set [5] and in data set [6] was “did not induce mutations” in each case. In data set [7], the mutagenicity entry was “not mutagenic”.

Turning to `CCCCCCCCCCCCCC[Se]CC(=O)O` [TSA, tetradecylselenioacetic acid], the induction of mutations result in data set [5] and in data set [6] was “did not induce mutations; also recorded: not to be mutagenic” in each case. For the same compound, the chromosomal aberrations entry in data set [8] was “no aberrations were induced”.
